Results reported in patent US20040076974A1, “Liver necrosis predictive genes” (priority 2002, published 2004).
Where two headings read alike, the source gives them in different places.

Legend:
Male Sprague-Dawley rats = format: in vivo, rat; details: intraperitoneal injection
Sprague Dawley rats = details: rat
Outline: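 Toxicity calls (necrosis present or absent at 72 h) and histopathology scores were correlated with tissue gene expression from Crl:CD Sprague Dawley rats. Animals, usually 3 treated with compound by i.p. route and 3 given vehicle, were killed at 6, 24 or 72 h and tissues frozen immediately in liquid nitrogen.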

[1] = tested on: toxicologically relevant rat genes (rat CT array); details: rat, in vivo

S=C=Nc1cccc2ccccc12 [1-naphthylisothiocyanate]
hepatocellular necrosis by histopathology (Male Sprague-Dawley rats; 100 mg/kg): induced hepatocellular necrosis
toxicity at the high dose (Sprague Dawley rats; high dose of Table 1, liver necrosis at 72 hours): produced toxicity
Liver Necrosis (Sprague Dawley rats; intraperitoneal, dose 15 mgkg, 72 hours after treatment): no
Score (histopathology liver necrosis severity score) (Sprague Dawley rats; intraperitoneal, dose 15 mgkg, 72 hours, 1 = not remarkable, 2 and higher increasing severity): 1
Liver Necrosis (Sprague Dawley rats; intraperitoneal, dose 60 mgkg, 72 hours after treatment): Yes
Score (histopathology liver necrosis severity score) (Sprague Dawley rats; intraperitoneal, dose 60 mgkg, 72 hours, 1 = not remarkable, 2 and higher increasing severity): 2

CN(C)[C@@H]1C(O)=C(C(N)=O)C(=O)[C@@]2(O)C(O)=C3C(=O)c4c(O)cccc4[C@@](C)(O)[C@H]3C[C@@H]12 [tetracycline]
14-3-3 zeta expression [1]: 0.7335
60S ribosomal protein L6 expression [1]: 1.38
Adenine nucleotide translocator 1 expression [1]: 1.332
Alpha-1 microglobulin/bikunin precursor (Ambp) expression [1]: 1.73
Alpha-2-macroglobulin, sequence 2 expression [1]: 1.2
Alpha-2-microglobulin expression [1]: 0.5107
Alpha-prothymosin expression [1]: 1.454
Alpha-tubulin expression [1]: 0.9701
Apolipoprotein AII expression [1]: 0.2962
Apolipoprotein C1 expression [1]: 1.791
Aquaporin-3 (AQP3) expression [1]: 0.9307
Beta-actin expression [1]: 0.78
Beta-actin, sequence 2 expression [1]: 0.5941
Beta-tubulin, class I expression [1]: 0.7321
Betaine homocysteine methyltransferase (BHMT) expression [1]: 0.2575
Biliverdin reductase expression [1]: 0.7455
CDK108 expression [1]: 0.7153
Calpactin I heavy chain expression [1]: 1.165
Calpain 2 expression [1]: 1.216
Cathepsin L, sequence 2 expression [1]: 1.097
Cathepsin S expression [1]: 1.473
Cholesterol esterase expression [1]: 0.955
Cofilin expression [1]: 1.77
Collagen type II expression [1]: 1.355
Cyclin D1 expression [1]: 1.265
Cystatin C expression [1]: 1.57
Cytochrome P450 2A3 expression [1]: 0.8495
Cytochrome P450 2C11 expression [1]: 0.8002
Cytochrome P450 2C23 expression [1]: 1.592
Dynamin-1 (D100) expression [1]: 0.9613
Elongation factor-1 alpha expression [1]: 1.049
Equilbrative nitrobenzylthioinosine-sensitive nucleoside transporter expression [1]: 1.39
F1-ATPase beta subunit expression [1]: 1.072
Fatty acid synthase expression [1]: 0.837
Gamma-actin, cytoplasmic expression [1]: 1.057
Glutathione S-transferase theta-1 expression [1]: 1.085
Glycine methyltransferase expression [1]: 0.5811
Heme oxygenase expression [1]: 1.421
High affinity IgE receptor gamma chain (FcERIgamma) expression [1]: 1.193
Hypoxanthine-guanine phosphoribosyltransferase expression [1]: 0.7473
IgE binding protein expression [1]: 1.055
Insulin-like growth factor I, exon 6 expression [1]: 0.8256
JNK1 stress activated protein kinase expression [1]: 0.6582
Melanoma-associated antigen ME491 expression [1]: 1.77
Multidrug resistant protein-1 expression [1]: 1.041
Multidrug resistant protein-2 expression [1]: 0.8907
N-hydroxy-2-acetylaminofluorene sulfotransferase (ST1C1) expression [1]: 1.531
NADP-dependent isocitrate dehydrogenase, cytosolic expression [1]: 1.608
NIPK expression [1]: 0.7421
Nucleoside diphosphate kinase beta isoform expression [1]: 1.032
Organic cation transporter 3 expression [1]: 1.233
Ornithine decarboxylase expression [1]: 0.9438
Osteoactivin expression [1]: 1.112
Paraoxonase 1 expression [1]: 2.144
Phase-1 RCT-24 expression [1]: 0.8327
Phase-1 RCT-36 expression [1]: 0.8652
Phase-1 RCT-43 expression [1]: 1.003
Phase-1 RCT-58 expression [1]: 1.737
Phase-1 RCT-109 expression [1]: 0.5933
Phase-1 RCT-117 expression [1]: 0.8447
Phase-1 RCT-146 expression [1]: 0.9475
Phase-1 RCT-149 expression [1]: 0.6559
Phase-1 RCT-173 expression [1]: 0.5698
Phase-1 RCT-179 expression [1]: 1.528
Phase-1 RCT-207 expression [1]: 0.6995
Phase-1 RCT-211 expression [1]: 0.6151
Phase-1 RCT-227 expression [1]: 1.846
Phase-1 RCT-290 expression [1]: 0.417
Poly(ADP-ribose) polymerase expression [1]: 0.9896
Presenilin-1 expression [1]: 2.114
Protein tyrosine phosphatase, receptor type, D expression [1]: 1.295
Pyruvate kinase, muscle expression [1]: 0.6785
Ribosomal protein L13A expression [1]: 0.6452
Ribosomal protein S9 expression [1]: 1.161
Ribosomal protein S17 expression [1]: 1.358
Stathmin expression [1]: 0.7954
Stearyl-CoA desaturase, liver expression [1]: 0.1376
Thioredoxin-1 (Trx1) expression [1]: 0.7172
Thymosin beta-10 expression [1]: 0.6534
Tissue plasminogen activator expression [1]: 0.9708
Transitional endoplasmic reticulum ATPase expression [1]: 1.373
Ubiquitin conjugating enzyme (RAD 6 homologue) expression [1]: 1.177
Uncoupling protein 2 expression [1]: 0.7333
Zinc finger protein expression [1]: 1.116
alpha-1,2-fucosyltransferase expression [1]: 0.495
p55CDC expression [1]: 0.9757
{Phase-1 RCT 98} expression [1]: 1.16
{Ribosomal protein 16} expression [1]: 1.197
toxicity at the high dose (Sprague Dawley rats; in vivo): produced toxicity
toxicity at the low dose (Sprague Dawley rats; in vivo): not at the low dose
Liver Necrosis (Sprague Dawley rats; in vivo, ip, 50 mg/kg): no
Score (histopathology liver necrosis severity score) (Sprague Dawley rats; in vivo, ip, 50 mg/kg): 1
Liver Necrosis (Sprague Dawley rats; in vivo, ip, 150 mg/kg): Yes
Score (histopathology liver necrosis severity score) (Sprague Dawley rats; in vivo, ip, 150 mg/kg): 2

CC(=N)S [thioacetamide]
hepatocellular necrosis by histopathology (Male Sprague-Dawley rats; 200 mg/kg): induced hepatocellular necrosis
